Patent publication US20120252894A1, “COMPOUNDS FOR ALLEVIATING PAIN AND STRESS IN FETUS AND NEWBORN” (priority 2011, published 2012)
Where a SMILES comes first, the peptide text is derived from it. Bridges are numbered along the chain shown (N, C = ends). [ ]: non-standard residue; d: D form. Orn = NCCC[C@H](N)C(=O)O; Mpa = O=C(O)CCS

Legend:
newborn rats = assay: Thermal tail-flick assay (tail immersion, 50° C. water); format: in vivo, rat; settings: for change in tail withdrawal delay: P0 rats, atosibane 2 μg/kg or SSR126768A 1 μg/kg intraperitoneal; for change in tail-flick delays: P2 rats, oxytocin receptor blockers; for reversal of the effect of oxytocin receptor blockers on tail-flick: newborn rats
Protocol: Pregnant and maternal Wistar rats were housed with a 12-h light-dark-cycle, at 24°±1° C., and food and water ad libitum. The day of birth was considered 0 day old (P0). Experiments on P0 rats (male and female) were performed within two hours after birth.
The pup was held in a box with a hole allowing the tail to protrude from it. The inner surface of the box was covered with an aluminum sheet forming an electrical contact with the rat body. The electrical circuit via the sheet, body, tail and water bath was powered by a 1.5 V battery and its connection and disconnection could be easily detected upon the tail immersion and withdrawal from the water, respectively. Electrical signals were digitized at 1 kHz using a Digidata 1200 and recorded to a computer. The distal tip of the tail was lowered into the water bath (50° C.). Latency to withdrawal was recorded as the “pain” parameter, with a 15-second maximum allowable threshold. After three habituation tests, the latency to withdrawal was determined from the average of three consecutive measurements.
We first tested pain sensitivity in the newborn rats using a thermal tail-flick response. In this test, pain sensitivity is reciprocal to the delay in tail withdrawal from the hot water. […] We studied thermal tail-flick response in two age groups: (i) fresh newborn animals which were examined immediately, within an hour, after birth (P0) and (ii) two day-old rat pups (P2). […] We further studied whether endogenous oxytocin is involved in reduced pain in the newborn rats. To block the action of endogenous oxytocin circulating in the newborn pups we used selective blockers of oxytocin receptors atosibane (2 μg/kg, intraperiotoneal) and SSR126768A (1 μg/kg, intraperiotoneal).

neonatal rats = assay: Vocalization evoked by electrical stimulation of the whisker pad in decerebrated rat pups; format: in vivo
Protocol: Under isoflurane (1.5%) anaesthesia, rat pups were implanted with bipolar electrodes into the whisker pad and decerebrated at the upper pons level via a hole drilled 1 mm posterior to lambda using blunted 36 gouge needle, to avoid blood bleeding the hole was covered by cyanoacrylate after. After 10 min (P0) or one hour (P1-2 pups) of recovery period, the pups were wrapped by cotton and placed on the thermal blanket (38° C.). Whisker pad was stimulated by electrical train pulses (1 ms pulse duration, 5-25 V amplitude, 50 Hz, 1 minute inter-train interval). Vocalization response was recorded by microphone, digitized at 10 kHz using Digidata 1440 interface (Axon Instruments) and analyzed offline using Matlab (MathWorks, Natick, Mass.). To quantify the vocalization response, we calculated scalar integral (□) as following: (i) raw acustogram was converted to scalar acustogram by inverting all negative values to positive values; (ii) scalar acustogram was corrected for the baseline activity level by subtraction of the mean scalar acustogram value calculated during 1 minute before stimulation; (iii) scalar acustogram integral was calculated as cumulative, corrected for the baseline, scalar acustogram during 5 sec after stimulation.
In the experiments in vivo, Oxytocin (Sigma) 50 μM was injected at 0.1 ml/5 g (diluted in saline) IP, 30 min before testing. Bumetanide (Sigma) solution 25 μg/ml was injected IP at the dose of 5 μmol/kg, 30 min before testing. Atosiban (Sigma) (diluted in saline) was injected at 2 μg/kg, IP, 30 min before testing. SSR126768A (gift from Sanofi-Synthelabo) diluted in saline injected at 1 mg/kg IP, 30 min before testing. Sham injections in the control group were performed with equal volumes of saline.
In the second experiment, we studied oxytocin-modulation of the pain responses by measuring vocalization evoked by electrical stimulation of the whisker pad. Animals were decerebrated at caudal midbrain levels to cut the descending oxytocin projections from the VPN to spinal cord and to prevent noxious input to the brain. Electrical stimulation of the whisker pad evoked vocalization in the neonatal rats despite of decerebration. Vocalizing response was composed of several bursts with a dominant frequency in the range from 2.7 to 5 kHz (mean frequency 3.9±0.1 kHz n=24, rat P0-2). To quantify vocalization response, we calculated scalar acusticogram integral. In agreement with the results of the thermal tail-flick assay, oxytocin receptor blocker atosiban (2 μg/kg) increased vocalization response in the fresh newborn P0 rats (to 155±28%, n=8, p=0.0003;). […]

[1] = system: isolated spinal cord preparations; assay: Primary afferents depolarization (DR-DRPs) in isolated spinal cord; parameters: species or system rat
Protocol: Experiments were performed on lumbar (L) spinal cord preparations isolated from neonatal Wistar rats (P0-P1). All efforts were made to reduce the number of animals used and to minimize animal suffering. The experimental setup was the same as described previously (Taccola and Nistri, 2004). The spinal cord was superfused (5 ml min-1) with Krebs solution of the following composition (in mM): NaCl, 113; KCl, 4.5; MgCl2×7H2O, 1; CaCl2, 2; NaH2PO4, 1; NaHCO3, 25; glucose, 11; gassed with 95% O2-5% CO2; pH 7.4 at room temperature. All agents were bath-applied via the superfusing solution at the concentrations mentioned in the text. Recordings were obtained with glass suction electrodes (containing an Ag—AgCl pellet) filled with Krebs solution. Miniature bipolar suction electrodes were used in order to deliver single or repetitive electrical stimuli to DRs to evoke DR-DR potentials (DR-DRPs) (Kerkut and Bagust, 1995). Stimulus intensity was calculated in terms of threshold (Th), defined as the minimum intensity to elicit a detectable response in the homolateral VR.
Depolarizing action of GABA on the axons of primary afferents underlies primary afferents depolarization (PAD), that is a depolarizing response evoked by dorsal root stimulation in the neighboring dorsal root (Willis, 2006; Rudomin and Schmidt, 1999). Therefore, in the next experiments we have studied the effect of oxytocin on PAD in the in vitro isolated spinal cord preparations obtained from newborn rats.

[2] = system: trigeminal sensory neurons; assay: Calcium imaging of GABA-evoked intracellular calcium increases; format: cell-based, rat; settings: oxytocin 1 μM; for GABA-evoked intracellular calcium increases: trigeminal neurons from newborn rats, five hours in vitro
Protocol: Trigeminal sensory neurons were obtained from P0 rats. Animals were anesthetized by CO2 and decapitated. Trigeminal ganglia were excised and enzymatically dissociated in F12 medium containing 0.25 mg/ml trypsin, 1 mg/ml collagenase and 0.2 mg/ml DNAse (Sigma) at 37° C. Cells were plated on poly-1-lysine-coated Petri dishes in F12 medium with 10% fetal calf serum and examined 5 hours after plating. For Ca2+ imaging experiments cells were incubated for 40 min at 20-22° C. in physiological solution containing Fluo3 (AM ester cell-permeable compound; 1 μM; Molecular Probes), followed by a 30 min washout period. Fluorescence emission was detected with a Cell-R imaging system (Olympus, Hamburg, Germany). Images were acquired with 200 ms exposure time and single cell responses were analyzed with the Cell-R software. All drugs were applied via fast perfusion system (RDS-200, BioLogic Science Instruments Grenoble, France). Only cells with two stable control GABA transients were taken into analysis. Intracellular Ca2+ transients were expressed as percent amplitude increase (ΔF/F0, where F0 is the baseline fluorescence level and ΔF is the increment over baseline). Ca2+ transient intensity data was exported and then analyzed off-line using Excel and Origin (version 8.0) software. Significance was analyzed by non-parametric Mann-Witney test.
Because analgesic action of oxytocin in adult rats involves modulation of GABAergic control of the primary nociceptive afferents (Condes-Lara et al., 2009), we studied the effect of oxytocin on GABA responses in sensory trigeminal neurons, which detect noxious stimuli and conduct them to the spinal cord. Experiments were performed in primary cultures of trigeminal neurons dissociated from newborn rats and kept for five hours in vitro. In keeping with previous observations (Wang et al., 1994; Reichling et al., 1994), activation of GABA receptors induced robust transient increases of intracellular calcium in trigeminal neurons indicating depolarizing action of GABA and calcium entry into the cells via voltage-gated calcium channels. […]

TRPV1 receptors = target: T1, TRPV1 receptors (Rattus norvegicus, UniProt O35433); assay: Calcium imaging of capsaicin-evoked responses in DRG neurons; format: cell-based
T1 construct: endogenous in cells; host or cells: acutely dissociated primary sensory neurons (trigeminal ganglia per methods; called DRG neurons in results) from P0 rats
T1 sequence (O35433 whole entry): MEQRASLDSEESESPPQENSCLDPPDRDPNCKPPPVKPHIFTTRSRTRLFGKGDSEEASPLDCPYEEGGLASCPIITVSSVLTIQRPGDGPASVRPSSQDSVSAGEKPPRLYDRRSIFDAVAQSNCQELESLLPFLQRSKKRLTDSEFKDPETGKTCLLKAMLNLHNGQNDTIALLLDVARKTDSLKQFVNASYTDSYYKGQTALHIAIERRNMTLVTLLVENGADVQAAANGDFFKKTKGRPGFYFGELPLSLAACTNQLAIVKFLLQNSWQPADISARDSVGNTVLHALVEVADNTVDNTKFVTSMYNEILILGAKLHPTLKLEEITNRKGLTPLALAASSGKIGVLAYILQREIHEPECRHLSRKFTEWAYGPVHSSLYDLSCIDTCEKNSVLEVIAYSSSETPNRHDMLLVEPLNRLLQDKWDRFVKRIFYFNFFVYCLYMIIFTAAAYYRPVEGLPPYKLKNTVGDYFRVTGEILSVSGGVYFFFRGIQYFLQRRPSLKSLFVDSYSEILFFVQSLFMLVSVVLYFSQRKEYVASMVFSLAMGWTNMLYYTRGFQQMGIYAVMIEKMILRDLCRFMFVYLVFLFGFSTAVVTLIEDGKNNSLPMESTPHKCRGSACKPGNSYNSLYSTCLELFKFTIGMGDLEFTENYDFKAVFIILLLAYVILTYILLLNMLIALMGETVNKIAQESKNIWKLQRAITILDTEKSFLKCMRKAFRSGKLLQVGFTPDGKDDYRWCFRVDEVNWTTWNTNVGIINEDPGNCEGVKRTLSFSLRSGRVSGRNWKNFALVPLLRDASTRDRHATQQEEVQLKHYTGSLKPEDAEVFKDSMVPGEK

P2X3 receptor = target: T2, P2X3 receptor (Rattus norvegicus, UniProt P49654); assay: Calcium imaging of α-β-meATP-evoked responses in DRG neurons; format: cell-based
T2 construct: endogenous in cells; host or cells: acutely dissociated primary sensory neurons (trigeminal ganglia per methods; called DRG neurons in results) from P0 rats
T2 sequence (P49654 1-397): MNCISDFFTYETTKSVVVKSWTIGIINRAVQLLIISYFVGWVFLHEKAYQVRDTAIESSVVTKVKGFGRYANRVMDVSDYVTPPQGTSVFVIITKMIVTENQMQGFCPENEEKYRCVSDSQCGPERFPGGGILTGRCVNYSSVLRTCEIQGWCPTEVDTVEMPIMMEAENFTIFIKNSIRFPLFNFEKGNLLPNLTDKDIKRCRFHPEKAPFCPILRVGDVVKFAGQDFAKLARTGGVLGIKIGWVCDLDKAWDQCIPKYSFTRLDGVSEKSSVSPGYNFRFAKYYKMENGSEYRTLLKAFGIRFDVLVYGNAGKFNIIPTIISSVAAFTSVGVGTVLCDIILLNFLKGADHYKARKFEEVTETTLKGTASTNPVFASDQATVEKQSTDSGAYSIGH

GABA(A) channels = assay: Cell-attached single GABA(A) channel recordings (GABA driving force); format: cell-based, rat; settings: immature trigeminal neurons; oxytocin 1 μM (control 38.7±2.4 mV)
Protocol: Single GABA channel recordings were performed from the trigeminal sensory neurons prepared as described above. Cell attached patch-clamp recordings were performed using Axopatch 200A (Axon Instruments, Union City, Calif.) and EPC-9 (HEKA Elektronik Dr. Schulze GmbH, Lambrecht/Pfalz, Germany) amplifiers. Patch electrodes were made from borosilicate glass capillaries (GC150F-15, Clark Electromedical Instruments). For recordings of single GABA(A) channels, patch pipette solution contained (in mM): NaCl 120, TEA-Cl 20, KCl 5, 4-aminopyridine 5, CaCl2 0.1, MgCl2 10, glucose 10, Hepes-NaOH 10 buffered to pH 7.2-7.3 and GABA (1-5 μM) was added at the day of experiment from 1 mM frozen stock solution. Driving force for GABA(A) receptor mediated currents was determined from the current-voltage relationships of the currents through single GABA(A) channels single as described earlier (Tyzio et al., 2006) and corrected for an error of 2 mV (Tyzio et al., 2008).
DFGABA was deduced from reversal potential of the currents via GABA(A) channels (Serafini et al., 1995; Tyzio et al., 2006; Tyzio et al., 2008). In control conditions, GABA exerted strongly depolarizing action on the immature trigeminal neurons with DFGABA of 38.7±2.4 mV (n=6). In the presence of oxytocin (1 μM), DFGABA reduced to 17.7±6.7 mV (n=5; P<0.05).

[3] = newborn rats, drug alone (oxytocin 1 μM; atosiban 10 μM)
[4] = recordings between 12 and 24 hours after birth, atosiban 10 μM, oxytocin

Structure (SMILES)	change in tail withdrawal delay (newborn rats)	change in tail-flick delays (newborn rats)	peak of DR-DRPs, % of control [1, 3]	peak of DR-DRPs, % of control [1, 4]	reversal of the effect of oxytocin receptor blockers on tail-flick (newborn rats)	vocalization response (scalar acusticogram integral) (neonatal rats; P1-2 rats, drug alone)	GABA-evoked intracellular calcium increases [2]	further results
CCN(Cc1cccnc1)C(=O)c1ccc(Cl)c([C@]2(C)C(=O)N(Cc3ccc(OC)cc3OC)c3ccc(Cl)cc32)c1 [SSR126768A]	nearly three-fold acceleration in the tail withdrawal	did not significantly modify the tail-flick delays	–	–	–	–	–	–
CCOc1ccc(C[C@H]2NC(=O)CCSSC[C@@H](C(=O)N3CCC[C@H]3C(=O)N[C@@H](CCCN)C(=O)NCC(N)=O)NC(=O)[C@H](CC(N)=O)NC(=O)[C@H]([C@@H](C)O)NC(=O)[C@H]([C@@H](C)CC)NC2=O)cc1 [atosiban] ([Mpa][dY](Et)ITNCP[Orn]G-NH2; disulfide 1-6)	nearly three-fold acceleration in the tail withdrawal	did not significantly modify the tail-flick delays	112.7±9.1%	90.0±9.8%	–	–	–	vocalization response (scalar acusticogram integral) (neonatal rats; P0 rats, atosiban 2 μg/kg): 155±28%; vocalization response, from control level (neonatal rats; P1-2 rats, atosiban on top of exogenous oxytocin): 84±38%; peak of DR-DRPs, % of control ([1]; atosiban 10 μM added to oxytocin 1 μM): 106.0±20.8%
CCCCNc1cc(C(=O)O)cc(S(N)(=O)=O)c1Oc1ccccc1 [bumetanide]	–	–	–	–	reversed the effect of oxytocin receptor blockers	72±16%	suppressed the GABA receptor mediated increases in intracellular calcium	tail-flick responses (newborn rats; bumetanide 10 μM/kg, both age groups (P0 and P2)): strongly delayed the tail-flick responses; peak of DR-DRPs, % with respect to control values ([1]; bumetamide 20 μM added to atosiban 10 μM): 66.6±13.8%
COc1cc(CNC(=O)CCCC/C=C/C(C)C)ccc1O [capsaicin]	–	–	–	–	–	–	–	Ca2+ response evoked by agonist (TRPV1 receptors; 200 nM, 2 s pulses at 10 min intervals): evoked transient, and quite stable Ca2+ increases
CC[C@H](C)[C@@H]1NC(=O)[C@H](Cc2ccc(O)cc2)NC(=O)[C@@H](N)CSSC[C@@H](C(=O)N2CCC[C@H]2C(=O)N[C@@H](CC(C)C)C(=O)NCC(N)=O)NC(=O)[C@H](CC(N)=O)NC(=O)[C@H](CCC(N)=O)NC1=O [oxytocin]	–	–	93.6±5.6%	77.8±21.6%	partially reverse the effects of the competitive oxytocin receptor blockers	41±12%	significantly reduced GABA-evoked calcium increases	analgesic effect in tail-flick test (newborn rats; exogenous oxytocin 1 μg/kg systemic, newborn and P2 rats): dramatic analgesic effect; duration of slow transient responses induced by the drug ([2]; not shown): 60 to 80 s; amplitude of α-β-meATP (10 μM) evoked Ca2+ responses (P2X3 receptor; 1 μM-OT for 20-30 min): did not significantly change the amplitude; amplitude of capsaicin (200 nM) evoked Ca2+ responses (TRPV1 receptors; 1 μM-OT for 20-30 min): did not significantly change the amplitude; GABA driving force (DFGABA) (GABA(A) channels): 17.7±6.7 mV
Nc1ncnc2c1ncn2[C@@H]1O[C@H](COP(=O)(O)CP(=O)(O)OP(=O)(O)O)[C@@H](O)[C@H]1O [α-β-methylenATP]	–	–	–	–	–	–	–	Ca2+ response evoked by agonist (P2X3 receptor; 10 μM, 2 s pulses at 10 min intervals): evoked transient, and quite stable Ca2+ increases
